Measurements reported in patent US20230255205A1, “HERBICIDAL HETEROCYCLIC DERIVATIVES” (MoA Technology Limited, priority 2020, published 2023).

Tests used:
Assay in all cases: Post-emergence herbicidal test, % visual injury
Format in all cases: in vivo
Settings in all cases: 336 h, 14±1 days post application; for pest or weed control at 500 g/ha: rate 500 g/ha; for pest or weed control at 250 g/ha: rate 250 g/ha
[1] = tested on: Echinochloa crus-galli (ECHCG)
Procedure: (§1) Seeds of a variety of test species are grown in a sandy loam soil mixture, Lolium multiflorum (LOLMU), Amaranthus retroflexus (AMARE), Echinochloa crus-galli (ECHCG), Veronica persica (VERPE).
(§2) After sowing, at growth stage BBCH 12-14 (post-emergence), the plants are sprayed with an aqueous spray solution derived from the formulation of the technical active ingredient in acetone/water (50:50) solution containing 0.5% Tween 20 (polyoxyethlyene sorbitan monolaureate, CAS RN 9005-64-5). The test compounds are applied at the required concentration of active ingredient in g/ha. The test plants are then grown in a glasshouse under controlled environmental conditions and watered regularly as required. After 14±1 days post application (for post-emergence test), the test is evaluated by assessing the percentage damage caused to the plants in comparison with the untreated plots. The biological activities for post-emergence testing are shown below (Table 3) as a % visual injury.

[2] = tested on: Amaranthus retroflexus (AMARE)
Procedure: as §1, §2

Veronica persica (VERPE) = tested on: Veronica persica (VERPE)
Procedure: as §1, §2

[3] = tested on: Lolium multiflorum (LOLMU)
Procedure: as §1, §2

| SMILES | pest or weed control at 500 g/ha [1] [%] | pest or weed control at 500 g/ha [2] [%] | pest or weed control at 500 g/ha (Veronica persica (VERPE)) [%] | pest or weed control at 500 g/ha [3] [%] | other results |
| --- | --- | --- | --- | --- | --- |
| O=C(COc1ccc(F)cc1Cl)Nc1n[nH]c(C2CC2)n1 [Compound 1] | 90 | 100 | 60 | 40 | – |
| COCc1n[nH]c(NC(=O)COc2ccc(F)cc2Cl)n1 [Compound 3] | 90 | 100 | 90 | 60 | – |
| O=C(COc1cccc(C(F)(F)F)c1)Nc1nnc(C(F)(F)F)[nH]1 [Compound 4] | 20 | 99 | 80 | 0 | – |
| O=C(COc1ccc(F)c(Cl)c1)Nc1nnc(C(F)(F)F)[nH]1 [Compound 5] | 30 | 80 | 98 | 0 | – |
| O=C(COc1ccc(F)cc1Cl)Nc1nnc(N2CCCC2)[nH]1 [Compound 6] | 20 | 50 | 50 | 0 | – |
| CC(C)(C)c1nc(NC(=O)COc2ccc(F)cc2Cl)n[nH]1 [Compound 7] | 80 | 60 | 60 | 40 | – |
| O=C(COc1c(Cl)cccc1Cl)Nc1nnc(C(F)(F)F)[nH]1 [Compound 9] | 0 | 20 | 0 | 0 | – |
| O=C(COc1ccc(F)cc1F)Nc1nnc(C(F)(F)F)[nH]1 [Compound 10, 2-(2,4-difluorophenoxy)-N-[5-(trifluoromethyl)-4H-1,2,4-triazol-3-yl]acetamide] | 30 | 40 | 80 | 0 | – |
| CCC(Oc1ccccc1Cl)C(=O)Nc1nnc(C(F)(F)F)[nH]1 (centres unmarked) [Compound 12] | 10 | 70 | 60 | 0 | – |
| CS(=O)(=O)c1ccc(OCC(=O)Nc2nnc(C(F)(F)F)[nH]2)cc1 [Compound 13] | 0 | 60 | 80 | 60 | – |
| O=C(COc1ccc(F)cc1Cl)Nc1nnc(C(F)F)[nH]1 [Compound 14] | 90 | 100 | 60 | 60 | – |
| Cc1ccc(OCC(=O)Nc2nnc(C(F)(F)F)[nH]2)c(Br)c1 [Compound 15] | 0 | 0 | 50 | 0 | – |
| O=C(COc1ccc(Cl)c(F)c1)Nc1nnc(C(F)(F)F)[nH]1 [Compound 16, 2-(4-chloro-3-fluorophenoxy)-N-[5-(trifluoromethyl)-4H-1,2,4-triazol-3-yl]acetamide] | 20 | 100 | 70 | 0 | – |
| O=C(COc1ccc(Br)cc1F)Nc1nnc(C(F)(F)F)[nH]1 [Compound 17] | 0 | 60 | 70 | 0 | – |
| Cc1cccc(Cl)c1OCC(=O)Nc1nnc(C(F)(F)F)[nH]1 [Compound 18] | 0 | 0 | 70 | 0 | – |
| CCC(Oc1ccccc1F)C(=O)Nc1nnc(C(F)(F)F)[nH]1 (centres unmarked) [Compound 19] | 0 | 0 | 20 | 0 | – |
| Cc1ccc(OCC(=O)Nc2nnc(C(F)(F)F)[nH]2)cc1 [Compound 20] | 30 | 0 | 40 | 0 | – |
| O=C(COc1cccc(Br)c1)Nc1nnc(C(F)(F)F)[nH]1 [Compound 21] | 0 | 0 | 60 | 20 | – |
| O=C(COc1ccc(F)cc1Cl)Nc1n[nH]c(C2CCC2)n1 [Compound 22] | 90 | 100 | 90 | 40 | – |

| SMILES | pest or weed control at 500 g/ha [1] [%] | pest or weed control at 500 g/ha [2] [%] | pest or weed control at 500 g/ha (Veronica persica (VERPE)) [%] | pest or weed control at 500 g/ha [3] [%] | other results |
| --- | --- | --- | --- | --- | --- |
| CC(C)c1nnc(NC(=O)COc2ccc(F)cc2Cl)[nH]1 [Compound 23, 2-(2-chloro-4-fluorophenoxy)-N-[5-(propan-2-yl)-4H-1,2,4-triazol-3-yl]acetamide] | 90 | 100 | 100 | 40 | – |
| CN(C)c1n[nH]c(NC(=O)COc2ccc(F)cc2Cl)n1 [Compound 24] | 70 | 70 | 50 | 0 | – |
| O=C(COc1nc(Cl)c(Cl)cc1Cl)Nc1nnc(C(F)(F)F)[nH]1 [Compound 37] | 60 | 80 | 30 | 5 | – |
| Nc1c(Cl)c(F)nc(OCC(=O)Nc2nnc(C(F)(F)F)[nH]2)c1Cl [Compound 38] | 0 | 100 | 98 | 30 | – |
| O=C(COc1cc(Cl)c(Cl)cc1Cl)Nc1nnc(C(F)(F)F)[nH]1 [Compound 39] | 0 | 80 | 50 | 0 | – |
| Cn1c(NC(=O)COc2ccc(F)cc2Cl)nnc1C(F)(F)F [Compound 40] | 70 | 100 | 100 | 60 | – |
| Cn1nc(C(F)(F)F)nc1NC(=O)COc1ccc(F)cc1Cl [Compound 41, 2-(2-chloro-4-fluorophenoxy)-N-[1-methyl-3-(trifluoromethyl)-1H-1,2,4-triazol-5-yl]acetamide] | 60 | 95 | 70 | 40 | – |
| CN(C(=O)COc1ccc(F)cc1Cl)c1nc(C(F)(F)F)nn1C [Compound 42, 2-(2-chloro-4-fluorophenoxy)-N-methyl-N-[1-methyl-3-(trifluoromethyl)-1H-1,2,4-triazol-5-yl]acetamide] | 60 | 90 | 60 | 40 | – |
| Cc1ccccc1OCCCC(=O)Nc1nnc(C(F)(F)F)[nH]1 [Compound 89] | 0 | 40 | 95 | 0 | – |
| O=C(COc1ccc2c(c1)NC(=O)CC2)Nc1nc(C(F)(F)F)n[nH]1 [Compound 90] | 0 | 0 | 70 | 0 | – |
| Cn1ccc2c(OCC(=O)Nc3nc(C(F)(F)F)n[nH]3)cccc21 [Compound 91] | 0 | 0 | 70 | 0 | – |
| O=C(COc1ccccc1-n1cnnc1)Nc1nc(C(F)(F)F)n[nH]1 [Compound 92] | 0 | 0 | 70 | 0 | – |
| O=C(COc1ccc(Cl)cc1Cl)Nc1nnc(-c2ccc(F)cc2)[nH]1 [Compound 96] | 30 | 90 | 90 | 0 | – |
| O=C(COc1ccc(Cl)cc1Cl)Nc1nnc(C(F)(F)F)o1 [Compound 97] | – | – | – | – | pest or weed control at 125 g/ha ([1]; rate 125 g/ha): 0%; pest or weed control at 125 g/ha ([2]; rate 125 g/ha): 100%; pest or weed control at 125 g/ha (Veronica persica (VERPE); rate 125 g/ha): 100%; pest or weed control at 125 g/ha ([3]; rate 125 g/ha): 0% |
| CC(Oc1cccc(Cl)c1)C(=O)Nc1nnn[nH]1 (centres unmarked) [Compound 98] | – | – | – | – | pest or weed control at 250 g/ha [1]: 0%; pest or weed control at 250 g/ha [2]: 0%; pest or weed control at 250 g/ha (Veronica persica (VERPE)): 20%; pest or weed control at 250 g/ha [3]: 10% |
| COc1nnc(NC(=O)COc2ccc(F)cc2Cl)[nH]1 [Compound 99] | – | – | – | – | pest or weed control at 250 g/ha [1]: 0%; pest or weed control at 250 g/ha [2]: 50%; pest or weed control at 250 g/ha (Veronica persica (VERPE)): 50%; pest or weed control at 250 g/ha [3]: 0% |
| Cc1cccc(C)c1OCC(=O)Nc1nnc(C(F)(F)F)[nH]1 [Compound 100] | 0 | 0 | 20 | 0 | – |
| O=C(COc1ccc(F)cc1Cl)Nc1nnc(-c2cccc3ccccc23)[nH]1 [Compound 101] | 70 | 100 | 80 | 20 | – |
| CCn1cnnc1NC(=O)COc1cccc(C(F)(F)F)c1 [Compound 102] | 70 | 50 | 7 | 0 | – |
